Eight compounds from patent US20060270643A1, “Hyfroxyflutamide induced pathways related to androgen receptor negative prostate cancer cells” (priority 2002, published 2006) can be followed below.

For test [1], the system named is association between Ras and Raf. Briefly: Ras-Raf immunoprecipitation assay in DU145 cells. The test is classed as cell-based, human. To be noted: lysates of treated DU145 cells; 1 μM HF, 10 ng/ml EGF, 1 μM 9-cis retinoic acid. How it is done:
8. […] (A) DU145 cells were treated with ethanol (lane 1), 10 ng/ml EGF (lane 2), 1 μM 9-cis retinoic acid (lane 3), and 1 μM HF (lane 4) after 24 hour serum starvation. Cells were lysed and 300 μg of total protein were immunoprecipitated with anti-Ras antibody, pulled-down by a protein A/G agarose beads, and detected with an anti-Raf antibody. (B) DU145 cells were transfected with pCDNA3.1 or pCDNA3.1-Ras N17 as indicated. After 24 hours serum starvation, the cells were treated with different ligands for 20 min, and then harvested. Western blots were performed with antibodies against phosphoERK1/2 and ERK1/2. The density of phospho-ERK1/2 shown as Optical Density (OD) were determined by the Versa Doc Imaging System (Bio-Rad) and quantified by Quantity One software.
200. Serum-stared and treated DU145 cells were lysed with RIPA buffer for 30 min on ice. Lysates were then centrifuiged at 12,000 g for 10 min at 4° C. and protein concentrations were determined by the Bradford assay. 500 μg of cell lysates were incubated for 4 hours with either anti-Ras or anti-EGFR antibody (1/100, Santa Cruz Biotechnology) to the protein-antibody mixture and then added in 20 μl of protein A/G plus-agarose (Santa Cruz Biotechnology) for another 4 hours incubation with constant rotation. The immunoprecipitates were washed four times with cold PBS, resolved by SDS-PAGE, and immunoblotted by anti-Raf-1 antibody, or anti-phospho-tyrosine monoclonal antibody (Oncogene Research, Calbiochem, La Jolla, Calif.). The results were visualized by chemiluminescence.

Test [2] deals with p44/42 MAP kinase (ERK1 and 2). Briefly: Immunoblot of phosphorylated p44/42 MAP kinase in DU145 cells. The format is cell-based, human. The method, then: 7. […] (A) DU145 cells were grown in 100 mm dishes and serum-starved for 24 hours. The cells were lysed on ice. Equal amounts of cell lysate were analyzed by 12% SDS-PAGE and subsequent immunoblotted with anti-phospho ERK1/2 and anti-ERK1/2 antibodies. (B) Different cell lines, at 70 to 80% confluence, were lysed and immunoblotted with anti-AR polyclonal antibody, NH27. (C) DU145 cells were pre-incubated with MEK1/2 inhibitor U0126, or U0124 before HF, EGF, and ethanol treatment. Cells were lysed and immunoblotted with anti-phospho ERK1/2 and anti-ERK1/2 antibodies. (D) CWR2 and (E) PC3-AR cells were grown in 100 mm dishes and serum-starved for 24 hours. The cells were treated with HF, EGF or ethanol vehicle for 15 mins and immunoblotted with anti-phospho-ERK1/2 and anti-ERK1/2 antibodies. […] MMTV-ARE-Luc reporter plasmid was cotransfected with or without pSG5AR into DU145 cells. After 18 hours, cells were treated with 1 nM DHT, 1 μM HF or both for another 18 hours, and then harvested. Cell lysates were collected and assayed for the luciferase activity.
9. […] After 15 min treatment, cells were lysed and immunoblotted with anti-phospho ERK1/2 and antiERK1/2 antibodies. […] EGFR was immunoprecipitated from the cell lysates, and their phosphotyrosine level was determined by anti-phosphotyrosine antibody. All the results were visualized using enhanced chemiluminescence.
198. This assay uses a polyclonal antibody specific against the activated p44/42 MAP kinases (Cell Signaling Technology, Beverly, Mass.), which detects p44 and p42 MAP kinase (ERK1 and 2) only when catalytically activated by dual phosphorylation at Thr202 and Tyr204. DU145 cells were seeded at 1×10^5 cells per 100 mm plate and allowed to attach overnight and then the media were replaced with serum-free DMEM media for 24 hours. The cells were pre-treated with MAP kinase inhibitors, EGFR antibodies, or cycloheximide for 1 hour and followed by HF, EGF, or vehicle treatment. Cells were washed twice with PBS, harvested at indicated times, and lyzed with RIPA buffer for 30 min on ice. The protein concentrations were determined by Bradford assay, and equal amount of protein was resolved by SDS-PAGE. Gels were transferred, immunoblotted with p44/42 MAP kinase antibody (1/1000), and then incubated with secondary antibody. Proteins were visualized by the enhanced chemiluminescence system (NEN™ Life Science Products, Boston, Mass.). P44/42 MAP kinase (total ERK1/2) was blotted as a control.

A further test concerns phospho-ERK1/2. The test is described as follows: Immunocytochemical staining of phospho-ERK1/2 in patients' prostate tumor biopsies. The format is in vivo, human. To be noted: recurrent tumors of four patients progressing while receiving flutamide (androgen ablation therapy); one value per patient. How it is done:
6. […] Prostate tumor tissue sections from the same patient with either the pre- (A and C) and post-androgen ablation plus flutamide therapy (B and D), were immunohistochemically stained for phosphorylated ERK1/2. Sections were counterstained with Mayer Hematoxylin Blue (A and B). Original magnification ×400.
196. Immunocytochemical staining were performed on formalin-fixed, paraffin-embedded tissue sections using antibodies ERK1,and ERK2 (SC-94, and SC-154, 1/400 dilution), and phospho-ERK1/2 (SC-7383, 1/50 dilution) all from Santa Cruz (Santa Cruz, Calif.). Sections were cut at 4 to 5 microns and deparaffinized according to established procedures and quenched with 3% hydrogen peroxide for 6 min. Antigen unmasking with heat retrieval in citrate buffer/pH 6.0 was accomplished by placing slides in a microwave (1500 watts) pressure cooker for 30 minutes. Slides were rinsed and stained for 45 minutes with primary antibody, and then incubated for 20 min with secondary antibody and streptavidin-HRP. Slides were developed with AEC+, rinsed and counterstained with Mayer Hematoxylin Blue in 0.3% ammonia water.
201. […] Each slide was examined and scored the number of the cells stained positive for phosph-ERK1/2 under the 100× high power field. […]

In test [3] the test system is cyclin D1 promoter (−1745D1-Luc). Briefly: Cyclin D1 promoter luciferase reporter assay in DU145 cells. The test is classed as cell-based, human. To be noted: 10^−6 M HF or 30 ng/ml EGF. How it is done:
(§1) 11. […] (A) DU145 cells were treated with HF (1 μM), or EGF (10 ng/ml), or ethanol vehicle for 12 hours after the serum starvation. Cells were lysed and blotted with anti-cyclin D1 antibody. (B) DU145 cells were serum starved for 24 hours and then co-transfected DN Ras or DN Raf together with […] Luc reporter with SuperFect (Qiagen). After 4 hours, the medium was changed to normal medium (10% serum) for 18 hours and then changed to serum starvation condition for another 24 hours and then treated with HF, EGF, or ethanol vehicle control. Cells were lysed for luciferase activity analysis.
197. DU145 cells were obtained from American Type Culture Collection and cultured in Dubecco's modified Eagles's medium (DMEM) supplemented with 10% fetal bovine serum (FBS). Cells (1×10^5) were seeded in 35 mm plates and transfected with the SuperFect transfection reagent (Qiagen, Chatworth, Calif.). After 4 hours the media were changed to serum-free DMEM media for 24 hours. Thereafter, the cells were treated with HF, EGF, and vehicle for 18 hours and then lysed for luciferase assay. Luciferase activity was normalized for taansfection efficiency using pRL-TK as an internal control. Luciferase assays were performed using dual-luciferase reporter system (Promega, Madison, Wis.).
Background: A reporter such as luciferase makes a cellular process visible.

Another test relates to DU145 cells. The test is described as follows: Cell proliferation assay (hemacytometer counting). The format is cell-based, human. The method, then:
10. […] (A) DU145 cells were seeded in 10% FBS DMEM medium and 24 hours later cells were changed to serum free medium. 48 hours later changed the medium to 0.5% FBS medium and treated with ethanol, HF, or EGF. Every 24 hours, the cells were counted by hemacytometer. […]. […] (B) DU145 cells were seeded and transfected with anti-sense oligonucleotide of Ras (IRIS 2503: 5′-[…]-3′), Raf (IIUS: 5132:5′-[…]-3′) and HIV (5′-[…]-3′) (Chen, G., Oh, S., Monia B. P., and Stacey, D. W., J. Biol. Chem., 271: 28259-28265, 1996, Monia, B. P., et al., Proc. Natl. Acad. Sci. USA, 93: 15481-15484, 1996.) by SuperFect (Qiagen). 24 hour after serum starvation, we changed the cells to medium containing 0.5% FBS, and treated the cells as described in A. Cells were counted by hemacytometer every 24 hours. The cell lysate were blotted with anti-H-Ras and Raf antibodies and β-actin was blotted for loading control.
199. DU145 cells were seeded at 2×10^4/ml on 35 mm plates and allowed to attach overnight. Cells were kept in serum-free DMEM medium for 24 hours, and then media were replaced with DMEM-0.5% FBS and treated as indicated. Cells were trypsinized and counted with a hemacytometer at different times after treatments. For the antisense oligonuleotide experiments, cells were incubated with a fixed ratio of oligonucleotide versus SuperFect (2.5 μl of SuperFect per 100 nM oligo) for 4 hours and then the oligo-containing medium was replaced with DMEM-0.5% FBS. Cells were trypsinized and counted by hemacytometer at indicated times.

The subject of a further test is cyclin D1. The test is described as follows: Western blot of cyclin D1 and cell cycle related gene products in DU145 cells. The format is cell-based, human. The method, then: as §1
On the technique in general: In western blotting, separated proteins are transferred to a membrane and probed.

Test [4] deals with AR. Briefly: AR phosphorylation in COS-1 cells transfected with wtAR or mtAR. The format is cell-based. How it is done: (§2) 14. […] Anti-pSer, anti-phosphoserine antibody. […] Total AR protein was blotted using an anti-AR antibody (AR), and AR phosphorylation was detected using an anti-phospho-AR (S210) antibody (pAR). […] The cells were then harvested for immunoprecipitation with anti-AR antibody and Western blot analysis. NH27, anti-AR antibody, anti-pSer, anti-phosphoserine antibody.
(§3) 219. The imrnunoprecipitation and Western blotting were performed as previously described (Lin, H. K., et al. (2001) Proc Natl Acad Sci USA 98, 7200-7205). The cell extracts (1 mg) were immunoprecipitated with the indicated antibody. The immunocomplexes were subjected to 8% SDS-PAGE and immunoblotted with the indicated antibody.

Test [5] concerns AR. Briefly: AR phosphorylation in LNCaP cells (immunoprecipitation / Western blot). The test is classed as cell-based, human. How it is done:
as §2, §3

Values joined by “and” are separate entries in the source; they are usually repeats but may differ in a detail not shown here. Identical values can stand only once. “Also recorded” adds a separate entry of the source. Like-named read-outs stand apart in the source and are kept apart here.

`CC1=C(/C=C/C(C)=C\C=C\C(C)=C\C(=O)O)C(C)(C)CCC1` [9 cis-retinoic acid, 9-cis retinoic acid]: in test [1], the “Raf detected in the Ras immunocomplex” value is on record as “not”.

With `COc1cc2ncnc(Nc3cccc(Cl)c3)c2cc1OC` [AG1478], in test [2] (preincubation with 100 nM for 1 hour), the “levels of phospho-ERK1/2 induced by either HF or EGF” value is on record as “decreased levels of phospho-ERK1/2”.

Regarding `CC(C)C(=O)Nc1ccc([N+](=O)[O-])c(C(F)(F)F)c1` [Flutamide], the “cells stained positive for phospho-ERK1/2” value with phospho-ERK1/2 was 30% and 41% and 52% and 45%.

Regarding `CS/C(N)=C(C#N)/C(C#N)=C(\N)SC` [U0124], in test [2] (DU145 cells pre-incubated with inhibitor before HF treatment), the “block of HF-mediated MAP kinase activation” value was “not”.

Turning to `N#CC(=C(/N)Sc1ccccc1N)/C(C#N)=C(\N)Sc1ccccc1N` [U0126], the “block of HF-mediated MAP kinase activation” value in test [2] was “can block HF-mediated MAP kinase activation”.

For `C[C@@H]1C[C@@H]([C@H](O)CC2CC(=O)NC(=O)C2)C(=O)[C@@H](C)C1` [cycloheximide], in test [2] (Ten ng/ml cycloheximide, 1 hour pre-treatment), the “block of MAP kinase activation mediated by HF or EGF” value is given as “failed to block MAP kinase activation”. In addition, in test [2] (no HF or EGF (lane 7)), the “MAP kinase activation with ethanol added to cycloheximide treatment” value was “slight increment”.

With EGF: epidermal growth factor, the “Raf detected in the Ras immunocomplex” value in test [1] was “detected”. Further, the “induction of cyclin D1 promoter (−1745D1-Luc) activity” value in test [3] is “about 2 fold”. Further, the figures for the cell proliferation entry in the test on DU145 cells (cells maintained in 10% FBS medium (data not shown)) and with DU145 cells (low serum (0.5% FBS) after serum starvation) were “no significant stimulation of cell proliferation” and “stimulate the DU 145 cell growth significant; also recorded: can promote cell proliferation”, respectively. Moreover, the “cyclin D1 expression” value with cyclin D1 (HF (1 μM) or EGF (10 ng/ml) for 12 hours after serum starvation) was “induced”. Besides, the “other cell cycle related gene products (p27, p21, Ki67, PCNA)” value in the test with cyclin D1 (after HF- or EGF-treatment) was “no significant change”.

For IGF-1: insulin-like growth factor-1, the “phosphorylation of mutant AR (mtAR) (S210A/S790A)” value in the test on AR [4] (IGF-1) is recorded as “did not induce phosphorylation”. Besides, the “wild-type (wtAR) phosphorylation” value in the test with AR [4] (IGF-1 for 4 hours) is on record as “induced wild-type (wtAR) phosphorylation”. Further, in the test with AR [5] (LNCaP cells (P38), IGF-1 for 4 hours), the AR phosphorylation entry is “induced AR phosphorylation”. Moreover, in the test with AR [5] (LNCaP cells treated with IGF-1, site-specific anti-phosphoserine AR antibody), the “AR phosphorylation at S210” value is “detected”.
